Experimental data reported in US11661423B2, “Heterocyclic compounds as RET kinase inhibitors” (Cancer Research Technology Limited, priority 2016, dated 2023).

Each molecule was assayed against RET (Homo sapiens (Human), UniProt P07949) (assay: RET enzyme assay (CisBio HTRF kinEASE)).
Format: biochemical

Chain of RET (P07949 29-1114): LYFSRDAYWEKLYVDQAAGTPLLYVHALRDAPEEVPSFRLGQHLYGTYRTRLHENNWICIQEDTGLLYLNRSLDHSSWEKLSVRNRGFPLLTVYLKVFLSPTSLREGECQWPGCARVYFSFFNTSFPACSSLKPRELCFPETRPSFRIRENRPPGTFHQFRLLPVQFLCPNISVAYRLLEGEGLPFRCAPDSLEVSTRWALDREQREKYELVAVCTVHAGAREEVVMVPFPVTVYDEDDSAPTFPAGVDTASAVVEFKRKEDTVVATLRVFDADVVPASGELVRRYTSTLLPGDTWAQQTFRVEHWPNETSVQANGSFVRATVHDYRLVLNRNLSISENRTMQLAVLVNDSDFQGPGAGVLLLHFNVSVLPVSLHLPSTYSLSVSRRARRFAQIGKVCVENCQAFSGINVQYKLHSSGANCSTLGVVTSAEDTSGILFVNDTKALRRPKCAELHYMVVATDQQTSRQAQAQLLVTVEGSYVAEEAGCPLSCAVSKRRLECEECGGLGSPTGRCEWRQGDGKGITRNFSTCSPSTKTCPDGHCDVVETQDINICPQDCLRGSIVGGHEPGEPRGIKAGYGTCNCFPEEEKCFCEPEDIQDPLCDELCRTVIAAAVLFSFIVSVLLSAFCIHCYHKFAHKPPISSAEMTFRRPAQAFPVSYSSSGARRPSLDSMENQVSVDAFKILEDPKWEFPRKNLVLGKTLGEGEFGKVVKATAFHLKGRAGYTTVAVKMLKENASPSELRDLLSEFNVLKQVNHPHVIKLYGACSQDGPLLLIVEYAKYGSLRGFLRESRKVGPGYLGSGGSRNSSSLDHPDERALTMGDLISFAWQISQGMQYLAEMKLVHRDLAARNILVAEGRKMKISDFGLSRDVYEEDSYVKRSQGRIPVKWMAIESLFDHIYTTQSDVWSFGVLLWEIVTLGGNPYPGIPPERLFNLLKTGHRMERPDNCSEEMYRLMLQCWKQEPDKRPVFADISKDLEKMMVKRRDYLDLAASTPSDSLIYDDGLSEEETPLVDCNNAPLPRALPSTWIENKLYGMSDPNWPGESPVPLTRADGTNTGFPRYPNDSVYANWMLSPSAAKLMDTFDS

SMILES | activity in the assays described in the Examples section
CC(C)(C)n1nc(-c2cc3ncccc3[nH]2)c2c(N)ncnc21 [1-tert-butyl-3-(1H-pyrrolo[3,2-b]pyridin-2-yl)pyrazolo[3,4-d]pyrimidin-4-amine] | did not exhibit the desired activity
Nc1ncnc2c1c(-c1[nH]c3ccccc3c1Cl)nn2CC1CCNC1 (centres unmarked) [3-(3-chloro-1H-indol-2-yl)-1-(pyrrolidin-3-ylmethyl)-1H-pyrazolo[3,4-d]pyrimidin-4-amine] | did not exhibit the desired activity
CC(C)CCn1nc(-c2[nH]c3ccccc3c2Cl)c2c(N)ncnc21 [3-(3-Chloro-1H-indol-2-yl)-1-isopentyl-1H-pyrazolo[3,4-d]pyrimidin-4-amine] | did not exhibit the desired activity

Now from value to molecule:

activity in the assays described in the Examples section | SMILES
did not exhibit the desired activity | Cn1nc(-c2[nH]c3ncccc3c2Cl)c2c(N)ncnc21 [Example 65, 3-(3-Chloro-1H-pyrrolo[2,3-b]pyridin-2-yl)-1-methyl-pyrazolo[3,4-d]pyrimidin-4-amine]
did not exhibit the desired activity | Nc1ncnc2c1c(-c1[nH]c3ncccc3c1Cl)nn2CC(=O)O [2-(4-amino-3-(3-chloro-1H-pyrrolo[2,3-b]pyridin-2-yl)-1H-pyrazolo[3,4-d]pyrimidin-1-yl)acetic acid]
